Results as given in publication PMC12066708 (Communications Biology, 2025).

Target: T1, Kell (Homo sapiens, UniProt P23276)
T1 sequence (P23276 1-732): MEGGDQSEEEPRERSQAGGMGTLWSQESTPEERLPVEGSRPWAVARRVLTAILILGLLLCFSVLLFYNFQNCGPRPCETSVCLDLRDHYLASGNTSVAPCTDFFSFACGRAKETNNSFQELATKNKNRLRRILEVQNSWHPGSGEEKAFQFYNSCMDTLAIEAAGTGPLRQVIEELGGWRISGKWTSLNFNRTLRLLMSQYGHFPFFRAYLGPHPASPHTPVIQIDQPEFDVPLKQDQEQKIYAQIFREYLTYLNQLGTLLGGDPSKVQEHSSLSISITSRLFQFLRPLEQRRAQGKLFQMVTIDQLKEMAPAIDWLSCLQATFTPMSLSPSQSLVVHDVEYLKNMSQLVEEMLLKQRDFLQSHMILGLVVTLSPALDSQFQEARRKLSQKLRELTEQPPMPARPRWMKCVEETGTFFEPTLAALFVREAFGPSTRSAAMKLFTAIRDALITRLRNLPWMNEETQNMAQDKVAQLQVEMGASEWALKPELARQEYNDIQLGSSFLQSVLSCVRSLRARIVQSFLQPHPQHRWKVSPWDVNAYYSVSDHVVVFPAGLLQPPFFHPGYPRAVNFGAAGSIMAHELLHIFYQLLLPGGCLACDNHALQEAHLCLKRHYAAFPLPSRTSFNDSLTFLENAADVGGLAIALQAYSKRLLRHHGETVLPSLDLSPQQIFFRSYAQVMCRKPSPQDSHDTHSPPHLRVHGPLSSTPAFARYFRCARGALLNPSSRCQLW
Experiment: microscale thermophoresis
Assay type: binding

Kd: 33 µM
SMILES: O=C(O)CNC(=O)C(CS)Cc1ccccc1 (stereo not shown) [thiorphan]
